Literature values as cited in patent US11311529B2, “Topical formulations of 5-α-reductase inhibitors and uses thereof” (Varsona Therapeutics, Inc., priority 2018, dated 2022).

What was measured:
[1] = system: men; conditions: oral, over a period of 12 to 24 weeks, compared with oral finasteride
[2] = system: DHT; conditions: 5 mg daily dose, oral, people suffering from BPH

Row | SMILES | hair count results [1] | DHT blocked [2]
1 | C[C@]12C=CC(=O)N[C@@H]1CC[C@@H]1[C@@H]2CC[C@]2(C)[C@@H](C(=O)Nc3cc(C(F)(F)F)ccc3C(F)(F)F)CC[C@@H]12 [oral dutasteride, (5α,17β)-N-[2,5 bis(trifluoromethyl)phenyl]-3-oxo-4-azaandrost-1-ene-17-carboxamide] | better hair count results than oral finasteride | 98.4%+/−1.2
2 | CC(C)(C)NC(=O)[C@H]1CC[C@H]2[C@@H]3CC[C@H]4NC(=O)C=C[C@]4(C)[C@H]3CC[C@]12C [oral finasteride, finasteride] | – | 70.8+/−18.3%
